In patent US4414206A, “Animal feeds” (Bristol-Myers Company, priority 1982, dated 1983):
Entries after “also recorded” stand apart in the source; their conditions may differ.

Experiments:
Male broiler chickens = assay: Four week growth and feed efficiency study in broiler chicks fed amphomycin-supplemented feed; assay type: in vivo, chickens (Hubbard breeder pullet×White Mountain males)
From the text: The efficacy of amphomycin in promoting growth and improving the feed efficiency of broiler chicks is illustrated below.
In this example a basal diet was employed containing the following ingredients:
Male broiler chickens (Hubbard breeder pullet×White Mountain males) were used as the test animal. They were housed in electrically heated, metal battery brooders equipped with raised wire-screen floors. […] The room and battery units were left unclean from a previous test that terminated before the chicks were started. Drinking water for the test came from overflow water from a laying cage operation. The water was collected in garbage cans and was allowed to stand overnight to permit particulate matter to settle out. The birds were vaccinated at 7 days of age for Newcastle, Bronchitis and Marek's. The feed trays were fitted with wire screens riding on top of the feed to minimize feed wastage. Feed and water were fed ad libitum. Four groups of ten birds each, chosen on the basis of hatching body weight, were fed the experimental diet for a four week test period and four groups were fed the control diet. The groups of birds and diets were placed in the batteries on the basis of position chosen from tables of random numbers. The birds and the feed were group weighed on a weekly basis. The test was terminated at four weeks of age.
The control diet was prepared as follows:
The experimental diet (for amphomycin concentration
of 4 grams/ton) was prepared as follows:
*calculated for both groups at 800 grams body weight from feed efficiency

rumen fermentation = assay: Artificial rumen test (in vitro rumen fermentation); conditions: for Cellulose digested (%) / Methane produced (cc) / Propionate produced / Total calories digested (Calories) / Caloric efficiency: mean ± one standard deviation, three observations; for Caloric efficiency: formula in drawing 1
Method: A standard in vitro method for determining compounds which stimulate propionate production during rumen fermentation is the artificial rumen method described in U.S. Pat. No. 3,794,732. […] This property in ruminants is presumably in addition to the previously-described feed-utilization efficiency promoting activity of amphomycin in monogastric animals which involves a different mechanism of action.
Amphomycin was evaluated at doses of 0.025, 0.1 and 0.5 mg per incubation (25 ml. inoculum--artificial saliva with cellulose, starch and urea as nutrients) according to the general procedure of Example 5 of U.S. Pat. No. 3,794,732.
^a Results reported as mean ± one standard deviation. Controls
^b Reported as a percent of total volatile fatty acid calories

[1] = 4 grams/ton amphomycin in feed, versus control group
[2] = broiler chickens, about 4 to 12 grams per ton of feed, on average
[3] = 0.025, 0.1 and 0.5 mg per incubation

amphomycin
Body weights in grams at 4 weeks of age (Male broiler chickens; 4 grams/ton amphomycin in feed, ad libitum, four week test, male broiler chickens): 817.5 grams | Improvement in feed efficiency (Male broiler chickens; [1]): 4.07% | Percentage increase in weight at end of 4 weeks (Male broiler chickens; [1]): 6.21% | Feed efficiency calculated as consumption in grams ÷ average body weight in grams (Male broiler chickens; 4 grams/ton amphomycin in feed, calculated at 800 grams body weight from feed efficiency curve): 1.480 | less total feed consumed than comparable chickens fed same diet without amphomycin (Male broiler chickens; [2]): 3% | more weight gained than comparable chickens fed same diet without amphomycin (Male broiler chickens; [2]): about 3% | Urease activity (rumen fermentation; 0.025 mg/tube): 90 % of control | Cellulose digested (%) (rumen fermentation; 0.025 mg/tube): 64.9 ± 2.1% | Methane produced (cc) (rumen fermentation; 0.025 mg/tube): 2.88 ± 0.47 cc | Propionate produced (rumen fermentation; 0.025 mg/tube): 58.9 ± 0.9% of total volatile fatt | Total calories digested (Calories) (rumen fermentation; 0.025 mg/tube): 1108 ± 22 Calories | Caloric efficiency (rumen fermentation; 0.025 mg/tube): 62.1 ± 4.5 | Urease activity (rumen fermentation; 0.1 mg/tube): 84 % of control | Cellulose digested (%) (rumen fermentation; 0.1 mg/tube): 64.0 ± 2.4% | Methane produced (cc) (rumen fermentation; 0.1 mg/tube): 2.53 ± 0.20 cc | Propionate produced (rumen fermentation; 0.1 mg/tube): 62.1 ± 1.7% of total volatile fatt | Total calories digested (Calories) (rumen fermentation; 0.1 mg/tube): 1098 ± 26 Calories | Caloric efficiency (rumen fermentation; 0.1 mg/tube): 68.9 ± 10.0 | Urease activity (rumen fermentation; 0.5 mg/tube): 60 % of control | Cellulose digested (%) (rumen fermentation; 0.5 mg/tube): 57.5 ± 4.0% | Methane produced (cc) (rumen fermentation; 0.5 mg/tube): 1.27 ± 0.07 cc | Propionate produced (rumen fermentation; 0.5 mg/tube): 67.1 ± 4.7% of total volatile fatt | Total calories digested (Calories) (rumen fermentation; 0.5 mg/tube): 1029 ± 43 Calories | Caloric efficiency (rumen fermentation; 0.5 mg/tube): 65.5 ± 16.8 | cellulase / cellulolysis (cellulose digestion) (in words) (rumen fermentation; [3]): did not significantly inhibit; also recorded: decreases slightly; also recorded: does not significantly inhibit | methane production (in words) (rumen fermentation; [3]): significantly inhibits; also recorded: decreases significantly | propionate production (in words) (rumen fermentation; [3]): significantly increase; also recorded: increases significantly | total calories digested (in words) (rumen fermentation; [3]): did not significantly inhibit cellulase or significantly affect total calories digested | dose that appears to be the most efficacious (rumen fermentation; 25 ml. inoculum per incubation): 0.1 mg. per incubation | acetate and butyrate production (in words) (rumen fermentation; as the dose increases): decreases
